Experimental data published in PubChem BioAssay AID256 (DTP/NCI, 2004).
“And” between values parts separate entries of the source, which are not always exact repeats. Identical values can stand only once. Toxic doses and inconclusive results are not listed. How the source made its calls: active means survival T/C of 150% or more; inactive means T/C below 125% in these data.

Tested on: CD2F1 mice, L1210 leukemia ip, survival T/C
Test: NCI In Vivo Anticancer Drug Screen. Data for tumor model L1210 Leukemia (intraperitoneal) in CD2F1 (CDF1) mice
Details: higher = longer survival
Outline: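 Read-out first: treated-group measurement over vehicle-control measurement, expressed as a ratio. Animals bore a transplanted tumor line and were dosed with compound or vehicle.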

[1] = endpoint: mean survival time, dose: 50.0 mg/kg/injection, schedule: Q04DX002 (ip), vehicle: saline with Tween-80
[2] = endpoint: mean survival time, dose: 100.0 mg/kg/injection, schedule: Q04DX002 (ip), vehicle: saline with Tween-80
[3] = endpoint: mean survival time, dose: 200.0 mg/kg/injection, schedule: Q04DX002 (ip), vehicle: saline with Tween-80
[4] = endpoint: mean survival time, dose: 400.0 mg/kg/injection, schedule: Q04DX002 (ip), vehicle: saline with Tween-80
[5] = endpoint: mean survival time, dose: 100.0 mg/kg/injection, schedule: Q01DX001 (ip), vehicle: saline
[6] = endpoint: mean survival time, dose: 200.0 mg/kg/injection, schedule: Q01DX001 (ip), vehicle: saline
[7] = endpoint: mean survival time, dose: 400.0 mg/kg/injection, schedule: Q01DX001 (ip), vehicle: saline
[8] = endpoint: mean survival time, dose: 100.0 mg/kg/injection, schedule: Q04DX003 (ip), vehicle: saline with Tween-80
[9] = endpoint: mean survival time, dose: 200.0 mg/kg/injection, schedule: Q04DX003 (ip), vehicle: saline with Tween-80
[10] = endpoint: mean survival time, dose: 400.0 mg/kg/injection, schedule: Q04DX003 (ip), vehicle: saline with Tween-80
[11] = endpoint: mean survival time, dose: 100.0 mg/kg/injection, schedule: Q01DX001 (ip), vehicle: saline with Tween-80
[12] = endpoint: mean survival time, dose: 100.0 mg/kg/injection, schedule: Q01DX009 (ip), vehicle: saline with Tween-80
[13] = endpoint: mean survival time, dose: 200.0 mg/kg/injection, schedule: Q01DX001 (ip), vehicle: saline with Tween-80

Measured: T/C

CSc1ncnc2nn(C3OC(CO)C(O)C3O)cc12 (stereo not drawn)
inactive: endpoint: mean survival time, dose: 12.5 mg/kg/injection, schedule: Q01DX005 (ip), vehicle: water 103 % of control | endpoint: mean survival time, dose: 25.0 mg/kg/injection, schedule: Q01DX005 (ip), vehicle: water 96 % of control | endpoint: mean survival time, dose: 50.0 mg/kg/injection, schedule: Q01DX005 (ip), vehicle: water 103 % of control | endpoint: mean survival time, dose: 100.0 mg/kg/injection, schedule: Q01DX005 (ip), vehicle: water 107 % of control | endpoint: mean survival time, dose: 200.0 mg/kg/injection, schedule: Q01DX005 (ip), vehicle: water 100 % of control

CN(C)C(=S)SCc1ccccc1
inactive: endpoint: mean survival time, dose: 100.0 mg/kg/injection, schedule: Q04DX003 (ip), vehicle: other 111 % of control | endpoint: mean survival time, dose: 200.0 mg/kg/injection, schedule: Q04DX003 (ip), vehicle: other 103 % of control | endpoint: mean survival time, dose: 400.0 mg/kg/injection, schedule: Q04DX003 (ip), vehicle: other 112 % of control

CCCCC(=O)/C=C/c1ccccc1
inactive: [1] 97 % of control | [2] 87 % of control | [3] 105 % of control | [4] 91 % of control

C=C(C)CCCC(C)C(O)C=O (stereo not drawn)
inactive: [5] 98 % of control | [6] 95 % of control | [7] 95 % of control

CO[Si](c1ccccc1)(c1ccccc1)c1cccc2ccccc12
inactive: endpoint: mean survival time, dose: 75.0 mg/kg/injection, schedule: Q04DX003 (ip), vehicle: saline 89 % of control | endpoint: mean survival time, dose: 150.0 mg/kg/injection, schedule: Q04DX003 (ip), vehicle: saline 91 % of control | endpoint: mean survival time, dose: 300.0 mg/kg/injection, schedule: Q04DX003 (ip), vehicle: saline 95 % of control

Nc1nc(N)c2nc(CCSc3ccc(C(=O)NC(CCC(=O)O)C(=O)O)cc3)cnc2n1 (stereo not drawn)
inactive: endpoint: mean survival time, dose: 0.38 mg/kg/injection, schedule: Q01DX009 (ip), vehicle: sodium bicarbonate 96 % of control | endpoint: mean survival time, dose: 0.75 mg/kg/injection, schedule: Q01DX009 (ip), vehicle: sodium bicarbonate 100 % of control | endpoint: mean survival time, dose: 1.5 mg/kg/injection, schedule: Q01DX009 (ip), vehicle: sodium bicarbonate 104 % of control | endpoint: mean survival time, dose: 3.0 mg/kg/injection, schedule: Q01DX009 (ip), vehicle: sodium bicarbonate 95 % of control | endpoint: mean survival time, dose: 6.0 mg/kg/injection, schedule: Q01DX009 (ip), vehicle: sodium bicarbonate 91 % of control | endpoint: mean survival time, dose: 12.0 mg/kg/injection, schedule: Q01DX009 (ip), vehicle: sodium bicarbonate 93 % of control | endpoint: mean survival time, dose: 24.0 mg/kg/injection, schedule: Q01DX009 (ip), vehicle: sodium bicarbonate 102 % of control | endpoint: mean survival time, dose: 48.0 mg/kg/injection, schedule: Q01DX009 (ip), vehicle: sodium bicarbonate 106 % of control

CC(Br)C(=O)NC(CC(N)=O)C(=O)O (stereo not drawn)
inactive: [8] 102 % of control | [9] 98 % of control

COc1nn(O)cc2cc(C(=O)O)nc1-2
inactive: endpoint: mean survival time, dose: 12.5 mg/kg/injection, schedule: Q04DX002 (ip), vehicle: saline with Tween-80 104 % of control | endpoint: mean survival time, dose: 25.0 mg/kg/injection, schedule: Q04DX002 (ip), vehicle: saline with Tween-80 104 % of control | [1] 101 % of control

CN1CCc2cc(O)cc3c2C1Cc1ccc(O)c(O)c1-3 (stereo not drawn)
inactive: endpoint: mean survival time, dose: 25.0 mg/kg/injection, schedule: Q04DX003 (ip), vehicle: DMSO 101 % of control | endpoint: mean survival time, dose: 50.0 mg/kg/injection, schedule: Q04DX003 (ip), vehicle: DMSO 101 % of control | endpoint: mean survival time, dose: 100.0 mg/kg/injection, schedule: Q04DX003 (ip), vehicle: DMSO 101 % of control | endpoint: mean survival time, dose: 200.0 mg/kg/injection, schedule: Q04DX003 (ip), vehicle: DMSO 102 % of control | endpoint: mean survival time, dose: 200.0 mg/kg/injection, schedule: Q04DX003 (ip), vehicle: water 105 % of control | endpoint: mean survival time, dose: 400.0 mg/kg/injection, schedule: Q04DX003 (ip), vehicle: water 102 % of control | endpoint: mean survival time, dose: 600.0 mg/kg/injection, schedule: Q04DX003 (ip), vehicle: water 102 % of control

COc1ccc2c(c1)CCc1cnn(C3OC(COC(C)=O)C(OC(C)=O)C(OC(C)=O)C3OC(C)=O)c1-2 (stereo not drawn)
inactive: endpoint: mean survival time, dose: 12.5 mg/kg/injection, schedule: Q01DX005 (ip), vehicle: other 92 % of control | endpoint: mean survival time, dose: 25.0 mg/kg/injection, schedule: Q01DX005 (ip), vehicle: other 90 % of control | endpoint: mean survival time, dose: 50.0 mg/kg/injection, schedule: Q01DX005 (ip), vehicle: other 87 % of control

CCOC(=O)N1C2CC(C3C2N3S(=O)(=O)c2ccccc2)N1C(=O)OCC (stereo not drawn)
inactive: [8] 104 % of control | [9] 103 % of control | [10] 90 % of control

[N-]=[N+]=NCC(=O)N1c2ccccc2Sc2ccccc21
inactive: endpoint: mean survival time, dose: 12.5 mg/kg/injection, schedule: Q01DX009 (ip), vehicle: other 95 % of control | endpoint: mean survival time, dose: 25.0 mg/kg/injection, schedule: Q01DX009 (ip), vehicle: other 103 % of control | endpoint: mean survival time, dose: 50.0 mg/kg/injection, schedule: Q01DX009 (ip), vehicle: other 98 % of control | endpoint: mean survival time, dose: 100.0 mg/kg/injection, schedule: Q01DX009 (ip), vehicle: other 101 % of control | endpoint: mean survival time, dose: 200.0 mg/kg/injection, schedule: Q01DX009 (ip), vehicle: other 95 % of control

O=C(O)CSc1c(Cl)c(=O)oc2ccc(Cl)cc12
inactive: endpoint: median survival time, dose: 6.25 mg/kg/injection, schedule: Q01DX009 (ip), vehicle: Klucel (hydroxypropylcellulose) (HPC) 101 % of control | endpoint: median survival time, dose: 12.5 mg/kg/injection, schedule: Q01DX009 (ip), vehicle: Klucel (hydroxypropylcellulose) (HPC) 101 % of control | endpoint: median survival time, dose: 25.0 mg/kg/injection, schedule: Q01DX009 (ip), vehicle: Klucel (hydroxypropylcellulose) (HPC) 97 % of control | endpoint: median survival time, dose: 50.0 mg/kg/injection, schedule: Q01DX009 (ip), vehicle: Klucel (hydroxypropylcellulose) (HPC) 94 % of control | endpoint: median survival time, dose: 100.0 mg/kg/injection, schedule: Q01DX009 (ip), vehicle: Klucel (hydroxypropylcellulose) (HPC) 108 % of control | endpoint: median survival time, dose: 200.0 mg/kg/injection, schedule: Q01DX009 (ip), vehicle: Klucel (hydroxypropylcellulose) (HPC) 104 % of control

COc1ccc(OC)c(NC(=O)Nc2cc([N+](=O)[O-])ccc2Cl)c1
inactive: [11] 91 % of control | [12] 93 % of control and 95 % of control | [2] 92 % of control and 95 % of control | [8] 101 % of control | [13] 88 % of control | endpoint: mean survival time, dose: 200.0 mg/kg/injection, schedule: Q01DX009 (ip), vehicle: saline with Tween-80 115 % of control and 98 % of control | [3] 91 % of control and 96 % of control | [9] 96 % of control | endpoint: mean survival time, dose: 400.0 mg/kg/injection, schedule: Q01DX009 (ip), vehicle: saline with Tween-80 100 % of control and 101 % of control | [4] 96 % of control and 104 % of control | [10] 96 % of control

CCOC(=O)c1c(C)c2c(n1C)CCCC2=O
inactive: [2] 93 % of control | [3] 89 % of control | [4] 86 % of control

Cc1ccc(P(=S)(c2ccccc2)c2ccc(C)c3ccccc23)c2ccccc12
inactive: [5] 97 % of control | [6] 91 % of control | [7] 93 % of control

Cc1cccc(N=Cc2ccccc2O)c1
inactive: [11] 88 % of control | [13] 97 % of control

Nc1ncnc(N)c1N
inactive: [12] 112 % of control

C=CN1C(=O)NC(C)(CC(C)C)C1=O (stereo not drawn)
inactive: [8] 94 % of control | [9] 92 % of control | [10] 102 % of control

CN(C)C(=S)Oc1ccc(S(=O)(=O)F)cc1
inactive: [2] 98 % of control | [3] 91 % of control | [4] 109 % of control

CC(=O)OCC1OC(Nc2nncs2)C(OC(C)=O)C1OC(C)=O (stereo not drawn)
inactive: endpoint: median survival time, dose: 12.5 mg/kg/injection, schedule: Q01DX005 (ip), vehicle: distilled water + Tween-80 97 % of control | endpoint: median survival time, dose: 25.0 mg/kg/injection, schedule: Q01DX005 (ip), vehicle: distilled water + Tween-80 96 % of control | endpoint: median survival time, dose: 50.0 mg/kg/injection, schedule: Q01DX005 (ip), vehicle: distilled water + Tween-80 102 % of control | endpoint: median survival time, dose: 100.0 mg/kg/injection, schedule: Q01DX005 (ip), vehicle: distilled water + Tween-80 100 % of control | endpoint: median survival time, dose: 200.0 mg/kg/injection, schedule: Q01DX005 (ip), vehicle: distilled water + Tween-80 100 % of control

C=CCSc1nc(N)nc2nc[nH]c12
inactive: endpoint: mean survival time, dose: 100.0 mg/kg/injection, schedule: Q04DX003 (ip), vehicle: saline sonified 107 % of control | endpoint: mean survival time, dose: 200.0 mg/kg/injection, schedule: Q04DX003 (ip), vehicle: saline sonified 96 % of control
